The results in this text go back to paper PMC6340882, “Targeting protein kinase CK2 and CDK4/6 pathways with a multi-kinase inhibitor ON108110 suppresses pro-survival signaling and growth in mantle cell lymphoma and T-acute lymphoblastic leukemia” (Oncotarget, 2018).

SMILES strings stand for the structures.

Broadly, the IC50 is the concentration that gives 50% inhibition. Broadly, the Kd is the constant that tells how readily two partners part at equilibrium. By GI50 is commonly meant the concentration at which growth is held to half of that of the control.

The test system of series [1] is phospho-PTEN Ser380 and AKT Ser129 in CEM and Granta-519 cells. Put plainly: Western blot of CK2-mediated PTEN and AKT phosphorylation. It is filed as cell-based, human. The note with it: CEM and Granta-519, 24 hours. On the procedure:
Figure 6 Inhibition of CK2/CDK4 mediated signaling by ON108110 (A) CEM and (B) Granta-519 cells were treated with increasing concentrations of ON 108110 for 24 hours. Whole cell extracts were subjected to western blot analysis using antibodies directed against the indicated proteins. GAPDH is shown as a loading control.
Cells were grown as indicated, lysed in lysis buffer (20mM Tris, pH 8.0/ 137mM NaCl/ 10% glycerol/ 1% NP-40) supplemented with 1X protease and phosphatase inhibitor cocktail on ice and resolved by SDS-PAGE. The proteins were transferred to a nitrocellulose membrane and subjected to Western blot analysis using the indicated antibodies. Proteins were visualized using an Odyssey imaging system (LI-COR Biosciences).
On the technique in general: In western blotting, separated proteins are transferred to a membrane and probed.

For series [2], the system named is panel of solid tumor and leukemic cell lines. Put plainly: Primary growth inhibition screen, MCLs and T-ALLs compared to other tumor types. The class given is cell-based, human. Conditions: from GI50 values of primary screen. The protocol:
(§1) Cell lines were cultured in RPMI-1640 medium (Thermo Scientific) supplemented with 10% heat inactivated FBS and penicillin-streptomycin at 37°C under humidified conditions and 5% CO2. All cell lines tested negative for mycoplasma. […] Compounds were added 24 hrs post-plating at the indicated concentrations. Cell counts were determined from duplicate wells 96 hrs post-treatment using the Cell Titer Blue assay in conjunction with the GloMax plate reader (Promega).

Another series has as its target CK2α1 (Homo sapiens, UniProt P68400). The experiment in a line: In vitro kinase assay with recombinant protein (32P-ATP, filtermat). The class given is biochemical. Conditions: recombinant CK2α1, independent in vitro kinase assay, 20μM ATP. The protocol:
(B) Structure of ON108110. (C) Calculation of IC50 values against CDK4 and CDK6 and (D) CK2α1 and CK2α2 by ON108110. Recombinant proteins were incubated with the indicated concentrations of ON108110 and subjected to in vitro kinase assays as described in the materials and methods section. Values obtained were plotted as a function of log drug concentration. IC50 values were determined by performing sigmoidal non-linear regression with a variable slope.
Recombinant CDK4/CYCLIN D1 or CK2α1 were mixed with their respective synthetic peptide substrates (10ng) and incubated with DMSO or increasing concentrations of ON108110 in 20μl kinase buffer [50mM Tris-HCl (pH 7.5), 10mM MgCl2, 1mM EGTA, 2mM DTT and 0.01% NP-40] for 30 min. at room temperature. Kinase reactions were carried out for 20 min at 30°C in the presence of 5μl of substrate-ATP mixture (1μg RB, 20μM ATP, 20μCi γ-^32P-ATP). […] The filtermat was air-dried, blocked with methanol for 2 minutes followed by three washes with 75mM phosphoric acid. The filtermat was then air-dried and analyzed using a phosphoimager.

Another series addresses T1, recombinant CK2α1 (Homo sapiens, UniProt P68400).
T1 construct: Amino acid residues 3-335 of CK2α1 were cloned using BamH1 and HindIII into pET28bsmt3-SUMO fusion vector; SUMO (N); made in house; host or cells: Escherichia coli BL21-DE3 (RIL)
Put plainly: Microscale thermophoresis (MST). It is filed as binding. The note with it: 16 concentrations 0.1nM-1000nM, average of 3 independent experiments. The protocol: Purified His6-CK2α1 (kinase domain) was labeled with red NT-647 cysteine-reactive dye according to the manufacturer (NanoTemper Technologies). A fixed quantity of NT-647-labeled CK2α1 (50nM) was incubated with the indicated concentrations of ON108110 in binding buffer (20 mM Tris-HCl, pH 7.5, 150 mM NaCl, 1 mM MgCl2, 0.1% Triton X-100, and 2% DMSO) at room temperature in the dark for 30 min. Samples were then loaded into hydrophilic capillaries (NanoTemper Technologies) and binding was measured using the Monolith NT.115 (NanoTemper Technologies). Binding data were analyzed using thermophoresis or hot/cold analysis, as previously described prior to normalization to either ΔFnorm[%(10^*(Fnorm(bound)-Fnorm(unbound)) or fraction bound (ΔFnorm[%]/amplitude). Dissociation constants (Kd) were calculated using built-in curve-fitting software provided by the manufacturer (NanoTemper Technologies).

The test system of another series is MCF-7. Put plainly: Growth inhibition (GI50), Cell Titer Blue. The class given is cell-based. Conditions: Homo sapiens, MCF7; MCF-7, Breast Cancer; 96 hrs post-treatment. The protocol:
as §1
Background: The colour change of resazurin is a common sign of viable cells or microbes.

The test system of the next series is BT-20. The experiment in a line: Growth inhibition (GI50), Cell Titer Blue. The class given is cell-based. The note with it: Homo sapiens; BT-20, Breast Cancer; 96 hrs post-treatment. The protocol: as §1
The test system of the next series is MOLT-4. The experiment in a line: Growth inhibition (GI50), Cell Titer Blue. The note with it: Homo sapiens; MOLT-4, Acute Lymphoblastic Leukemia; 96 hrs post-treatment. The class given is cell-based. The protocol:
as §1

The test system of a further series is Granta-519 cells. The experiment in a line: Caspase Glo 3/7 caspase activation assay. The class given is cell-based, human. Conditions: increasing concentrations, 24 hours. On the procedure:
Figure 5 Modulation of cell cycle expression and induction of apoptosis in ON 108110-treated MCL and T-ALL cell lines (A) CEM and Granta-519 cells were treated with either DMSO or increasing concentrations of ON108110 (0.5-2.0μM) for 24 hours. Cell cycle analysis was performed using propidium iodide staining. (B) CEM, HBL-2, RS4-11 and Granta-519 cells were treated with either DMSO (vehicle) or increasing concentrations of ON108110 (0.5-2.0 μM) for 24 hours and stained with Annexin V/DAPI (C) Graphical representation of apoptosis induced as shown in B. (D) Granta-519 cells were treated with increasing concentrations of ON108110 for 24 hours. Caspase activation and viability were measured using the Caspase Glo 3/7 and Cell Titer Blue assay kits, respectively. TEXT PRINTED IN THE PICTURE: (B) DMSO: 1.31; 2.34; 94.5; 1.65 | (B) ON108110: 2.21 (0.5μM); 4.32 (0.5μM); 91.1 (0.5μM); 2.37 (0.5μM); 1.64 (1.0μM); 15 (1.0μM); 80.8 (1.0μM); 2.62 (1.0μM); 4.83 (2.0μM); 60.7 (2.0μM); 28.9 (2.0μM); 5.58 (2.0μM) DOUBTS OF THE COPYIST ABOUT THIS PICTURE: Panel B: the quadrant numbers in the Annexin V/DAPI plots have no printed measure or unit. […]
Caspase-3/7 activation was measured using the Caspase-Glo® 3/7 kit as recommended by the manufacturer (Promega).

T1 sequence (P68400 3-335): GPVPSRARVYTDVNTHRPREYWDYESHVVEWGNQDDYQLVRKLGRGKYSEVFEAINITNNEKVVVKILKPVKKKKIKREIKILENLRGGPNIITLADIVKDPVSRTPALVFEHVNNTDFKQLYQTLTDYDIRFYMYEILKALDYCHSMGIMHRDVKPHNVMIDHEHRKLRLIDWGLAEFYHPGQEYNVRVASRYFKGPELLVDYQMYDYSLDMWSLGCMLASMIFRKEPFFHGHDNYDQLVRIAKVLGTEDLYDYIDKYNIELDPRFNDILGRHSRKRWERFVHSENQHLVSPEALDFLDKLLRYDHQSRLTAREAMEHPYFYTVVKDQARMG
CK2α1, sequence (P68400 whole entry): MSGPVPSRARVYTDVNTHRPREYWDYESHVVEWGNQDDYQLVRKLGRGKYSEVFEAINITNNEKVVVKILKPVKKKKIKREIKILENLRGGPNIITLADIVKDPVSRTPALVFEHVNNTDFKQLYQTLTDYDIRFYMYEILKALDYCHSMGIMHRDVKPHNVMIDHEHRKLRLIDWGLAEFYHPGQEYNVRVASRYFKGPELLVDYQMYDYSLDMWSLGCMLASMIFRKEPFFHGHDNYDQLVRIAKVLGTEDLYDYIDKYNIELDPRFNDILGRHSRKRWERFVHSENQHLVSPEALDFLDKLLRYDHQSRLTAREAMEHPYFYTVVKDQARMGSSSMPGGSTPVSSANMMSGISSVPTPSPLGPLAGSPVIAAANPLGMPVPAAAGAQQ

With `CC(=O)Oc1ccc(/C=C2\Sc3ccc(F)cc3NC2=O)cc1[N+](=O)[O-]` [ON108110], the “level of AKT Ser129” value in series [1] is “reduction”. For the same compound, the “level of phospho-PTEN Ser380” value in series [1] is “lower levels”. Besides, the “fold higher cytotoxicity against MCLs and T-ALLs compared to other tumor types” value in series [2] is recorded as 10-20 fold. In addition, the IC50 at CK2α1 amounted to 3 nM. For the same compound, on recombinant CK2α1, the Kd was found to be 2.5 nM. Further, the concentration for 50% growth inhibition (GI50) with MCF-7 is 800 nM; in the series on BT-20, 2500 nM; with MOLT-4, 500 nM. Moreover, the “Caspase activity and PARP cleavage” value in the series with Granta-519 cells was “increased as a function of cell death”.
